Experimental findings from PubChem BioAssay (NCI) are described below.

The structures appear in SMILES notation.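 The compound was tested at five concentrations on cells cultured in 96-well plates, with a 48-hour exposure period. GI50: concentration for 50% inhibition of growth. TGI: total growth inhibition.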 Bounds are passed on as bounds.

Common to all, as to test: DTP human tumour cell line panel, 48 h
The test system of assay [1] is DLD-1 colon.
Assay [2] deals with DMS 114 small cell lung.
Assay [3] has as its system SNB-78 CNS.
Assay [4] relates to M19-MEL melanoma.
Assay [5] deals with DU-145 prostate.
Assay [6] has as its system HS 578T breast.
The test system of assay [7] is BT-549 breast.
The subject of assay [8] is PC-3 prostate.
The subject of assay [9] is MDA-MB-231 breast.
Assay [10] concerns T-47D breast.

One may read the TGI as the concentration at which net growth stops. Regarding `CCOC(=O)COc1cccc2c1C(=O)CCO2`, the TGI in assay [1], in assay [2], in assay [3] and in assay [4] was more than 100 µM each time.

Consider `CCOC(=O)c1ncn2c1[nH]c(=S)c1ccccc12`, for which the TGI in assay [1], in [2] and in assay [4] was more than 100 µM each time.

One may read the GI50 as the concentration that inhibits growth by half. Consider `CC1(C)COC(c2ccc(C(F)(F)F)cc2C(O)c2ccc3ccccc3c2)=N1` (stereo not given), for which the TGI in [1] is more than 10 µM; in assay [2], more than 100 µM; in [3] it was more than 100 µM; in [4] it was more than 100 µM. Also, the GI50 in assay [2] is more than 100 µM; in [3], more than 10 µM; in assay [4] it was more than 100 µM.

For `CC(=O)N1[C@H](C(=O)O)CS[C@H]1c1ccncc1`, the TGI in assay [1], in assay [2], in assay [3] and in assay [4] was more than 100 µM throughout.

As for `CC(=O)C(CN(C(C)C)C(C)C)C(c1ccccc1)c1c(O)c2ccccc2oc1=O` (stereo not given), the TGI in assay [1], in assay [2], in assay [3] and in assay [4] was more than 100 µM in each case.

As to `Nc1ccc(C(=O)N/C(=C\c2ccc3c(c2)OCO3)c2nc3[nH]c(=S)[nH]c(=O)c3[nH]2)cc1`, the total growth inhibition concentration (TGI) in assay [1], in [3] and in assay [4] was more than 100 µM in each case.

Take `CCN(CC)CC(C(=O)Nc1c(C)cccc1C)/C(C)=N\NC(=O)C[N+](C)(C)C` (stereo not given): the concentration for total growth inhibition (TGI) in assay [1], in assay [2], in assay [3] and in assay [4] was more than 100 µM each time.

Consider `FC(F)(F)c1ccc(C2SCc3nc4ccccc4n32)cc1` (stereo not given), for which the concentration for total growth inhibition (TGI) in assay [1], in assay [2], in assay [3] and in assay [4] was more than 100 µM in each case.

With `C/C(CCn1[nH]c(=O)ccc1=O)=N\O`, the TGI in assay [1], in assay [2], in [3] and in assay [4] was more than 100 µM each time.

Consider `NC(CCc1nc(-c2ccc(Cl)cc2)cs1)C(=O)O` (stereo not given), for which the TGI in assay [1], in assay [3] and in assay [4] was more than 100 µM each time.

Turning to `CC(C)=CCCc1c(C)ccc2c1C(=O)C(=O)C(C(C)C)=C2`, the values for the total growth inhibition concentration (TGI) in [1], in [2] and in assay [4] were 6.51 µM, 9.36 µM and 7.87 µM, respectively.

In the case of `NS(=O)(=O)c1ccccc1C(=O)N/N=C(\c1nc2ccc([N+](=O)[O-])cc2[nH]c1=O)C(O)c1ccc([N+](=O)[O-])cc1` (stereo not given), the TGI in assay [1], in assay [5] and in assay [4] was more than 100 µM throughout.

With `COc1ccc2c(c1)C1(C=N2)CCN(C(C)=O)CC1`, the TGI in [1], in assay [2], in [3] and in [4] was more than 100 µM each time.

As for `C=CCc1cc(OC)c2c(c1)C(O)CC(c1ccc(OC)c(OC)c1)O2` (stereo not given), the total growth inhibition concentration (TGI) in assay [1], in assay [2], in assay [3] and in assay [4] was more than 100 µM throughout.

For the compound `COC(=O)[C@@]12C3=NO[C@]1(C(=O)OC)C(O[Si](C)(C)C(C)(C)C)[C@H]1OC(C)(C)O[C@H]1[C@@H]2C(OCc1ccccc1)CC3` (stereo not given in full), the TGI in [1], in assay [2] and in assay [4] was more than 100 µM each time.

`O=C(O)CCSC(=O)Nc1cccc(F)c1`: the TGI in [2] and in assay [3] was more than 100 µM throughout.

In the case of `COc1cc2cnc3c4cc(OC(C)C)c(OC)cc4ccc3c2cc1OC`, the TGI in [1], in assay [2] and in assay [4] was more than 100 µM each time.

Consider `COc1ccc(/C=C\c2cc(OC)c3c(c2)OCO3)c(O)c1O`, for which the total growth inhibition concentration (TGI) in assay [1] was 23 µM; in assay [2] it was 8.81 µM; in assay [3], 16 µM; in [4], 31.1 µM.

With `O=C1C2=C(SCCS2)C(=O)c2ccccc21`, the total growth inhibition concentration (TGI) in [1] amounted to 3.53 µM; in [2], 2.09 µM; in assay [4], 0.616 µM.

Consider `O=C1NC2(CCCCC2)C2CCCCC(O)C12` (stereo not given), for which the TGI in assay [1], in assay [2], in assay [3] and in assay [4] was more than 100 µM each time.

In the case of `O=C(/C=C/c1ccccc1Cl)c1ccc(Cl)c(Cl)c1`, the results for the TGI in assay [1], in assay [3] and in [4] were 30.1 µM, 32.7 µM and 29.8 µM, respectively.

`COc1ccc2nc3cc(Cl)ccc3c(Sc3ccccc3[N+](=O)[O-])c2c1`: the concentration for total growth inhibition (TGI) in assay [1], in [2], in assay [3] and in [4] was more than 100 µM in each case.

Take `CC(=O)OC1COC(n2c(=S)n(-c3ccc(C)cc3)c(=O)c3ccccc32)C(OC(C)=O)C1OC(C)=O` (stereo not given): the TGI in [1], in [2], in assay [3] and in assay [4] was more than 100 µM in each case.

`COc1ccccc1NC(=O)CC(=O)n1nc(C)c(N=Nc2ccccc2C(=O)O)c1C`: the TGI in assay [1], in [2], in [3] and in [4] was more than 100 µM throughout.

With `Cc1nc2c(nc1C)C(=O)c1ccccc1C2=O`, the total growth inhibition concentration (TGI) is 6.47 µM in assay [6]; 47.9 µM in [1]; 2.72 µM in assay [5]; 3.15 µM in assay [7]; more than 46 µM in [2]; more than 94.2 µM in assay [3]. In addition, the TGI in assay [8] stood at 30.3 µM; in [4], 1.07 µM; in assay [9], 35.6 µM; in assay [10] it was 13.8 µM.

For the compound `CN(CC(=O)O)S(=O)(=O)c1ccc2ccccc2c1`, the TGI in [1] and in [4] was more than 100 µM each time.

In the case of `O=C1c2ccccc2C(=O)c2sc(Nc3cccc(Cl)c3)nc21`, the GI50 is 2.82 µM in [6]; 1.67 µM in assay [7]; 1.89 µM in [8]; 0.292 µM in [9]; 1.84 µM in assay [10]. The concentration for total growth inhibition (TGI) in assay [6] was found to be 9.15 µM; in assay [1], 3.95 µM; in assay [7], 3.04 µM; in [2] it was 2.97 µM; in assay [8] it was 6.75 µM; in assay [4], 0.89 µM. The TGI in [9] stood at 3.37 µM; in assay [10], 5.98 µM.

On to `CC1(C)OC(=O)C(=Cc2ccc(O)cc2)C(=O)O1`, for which the total growth inhibition concentration (TGI) in assay [2], in assay [3] and in [4] was more than 100 µM in each case.

In the case of `CCNC1C2(CCCCC2)NC(=O)C12CCCCC2` (stereo not given), the TGI in [1], in [2], in assay [3] and in assay [4] was more than 100 µM in each case.

On to `O=[S@@]1Nc2ccc(Br)cc2S1`, for which the TGI in [1], in assay [3] and in assay [4] was more than 100 µM throughout.

As for `N#CC(C#N)=c1ccc(=C2NCC3CCCN23)cc1` (stereo not given), the total growth inhibition concentration (TGI) in [2], in assay [3] and in assay [4] was more than 100 µM throughout.

With `CC1CN1P1(N2CC2C)=NP(N2CC2C)(N2CC2C)=NP(N2CC2C)(N2CC2C)=N1` (stereo not given), the TGI in assay [1] and in assay [4] was more than 50 µM each time.

For the compound `COc1ccc(-c2cc(=O)c3ccc(O)cc3o2)c(OC)c1OC`, the concentration for total growth inhibition (TGI) in assay [1], in assay [2] and in assay [4] was more than 100 µM each time.

As to `CC(=O)OC(C)C(=O)C1c2cccc(O)c2C(=O)c2c(O)cc(C)cc21` (stereo not given), the TGI in [1] is 3.22 µM; in assay [2] it was 0.497 µM; in assay [4] it was 1.23 µM.

Turning to `Clc1cccc(Cc2cn3cc(-c4ccccc4)nc3s2)c1Cl`, the GI50 in assay [6] is 17.4 µM; in [5], 22.4 µM; in [7] it was 88.2 µM; in [8] it was 53.7 µM; in assay [9], 3.08 µM; in assay [10], 0.963 µM. Also, the total growth inhibition concentration (TGI) in assay [6], in assay [5], in assay [7], in assay [8], in [9] and in [10] was more than 100 µM each time.

Take `CCOC(=O)C1=C(C)CC2C(=O)OC(=O)C2C1(C)C` (stereo not given): the TGI in [1], in [2] and in assay [4] was more than 100 µM each time.

With `O=C(N/C(=C\c1cc(Cl)ccc1Cl)c1nc2[nH]c(=S)[nH]c(=O)c2[nH]1)c1ccccc1`, the total growth inhibition concentration (TGI) in [1] was more than 64.7 µM; in assay [2], more than 82.5 µM; in assay [3], more than 100 µM; in assay [4] it was more than 68.6 µM.

For `CNC(=O)c1ccccc1Nc1nc(Nc2ccc(N3CCOCC3)cc2OC)ncc1Cl`, the GI50 was 1.7 µM in assay [6]; 0.768 µM in assay [5]; 2.58 µM in assay [7]; 1.39 µM in [8]; 1.09 µM in assay [9]; 1.28 µM in [10]. The TGI in [6] was more than 26.4 µM; in assay [5], more than 39.2 µM; in [7], more than 39.1 µM; in assay [8], more than 66.9 µM; in assay [9] it was 5.26 µM; in assay [10], more than 36.1 µM.

Consider `Fc1ccc(Nc2ncnc3ccc(-c4cnc5[nH]ccc5c4)cc23)cc1Cl`, for which the GI50 in assay [6] was 2.66 µM; in [5], 4.58 µM; in assay [7] it was 3.11 µM; in assay [8], 3.54 µM; in assay [9] it was 2.03 µM; in assay [10], 0.592 µM. In addition, the concentration for total growth inhibition (TGI) in assay [6] is more than 45.9 µM; in assay [5], more than 93.3 µM; in assay [7] it was more than 27.9 µM; in assay [8], 27.3 µM; in assay [9] it was 6.06 µM; in [10] it was 13.9 µM.

Consider `CCc1ccc2c(c1)C(=O)c1c-2n(CCCBr)c(=O)c2cc([N+](=O)[O-])ccc12`, for which the GI50 in assay [6] is 18.2 µM; in [5] it was more than 50 µM; in assay [7], more than 50 µM; in assay [8], more than 50 µM; in assay [9], 45.7 µM; in assay [10] it was more than 50 µM. In addition, the total growth inhibition concentration (TGI) in [6], in assay [5], in assay [7], in assay [8], in assay [9] and in assay [10] was more than 50 µM throughout.

As for `Nc1cc2nc3ccccc3sc-2cc1=O`, the GI50 in [6] was 2.21 µM; in [5], 1.77 µM; in [7] it was 1.61 µM; in assay [8] it was 1.51 µM; in assay [9], 1.76 µM; in assay [10], 5.96 µM. Also, the TGI in [6] was 6.24 µM; in assay [5], 3.25 µM; in [7], 3.32 µM; in [8], 21.8 µM; in assay [9], 11.8 µM; in [10], 33.7 µM.

On to `Cc1cc2nc(C(Cl)Cl)nc(-c3ccc(Cl)cc3)n2n1`, for which the GI50 was 1.34 µM in [6]; 0.268 µM in assay [5]; 2.75 µM in [7]; 1.33 µM in assay [8]; 1.23 µM in [9]; 2.19 µM in assay [10]. Moreover, the TGI is 4.6 µM in assay [6]; 0.827 µM in assay [5]; more than 100 µM in assay [7]; 4.16 µM in [8]; 4.21 µM in assay [9]; more than 26.3 µM in assay [10].

Turning to `COc1cccc(NC(=O)CC(=O)n2nc(C)c(N=Nc3ccccc3)c2C)c1`, the TGI in [1], in assay [2], in assay [3] and in assay [4] was more than 100 µM each time.

With `COc1c2ccoc2c(/C=C/C=O)c2oc(-c3ccccc3)cc(=O)c12`, the GI50 in assay [6] was 7.2 µM; in [5], 10.7 µM; in assay [7], 2.88 µM; in assay [8] it was 3.23 µM; in [9], 4.1 µM; in assay [10], 2.14 µM. Also, the TGI in assay [6] is more than 100 µM; in assay [5], more than 100 µM; in [7], 13.1 µM; in assay [8] it was more than 100 µM; in assay [9] it was more than 100 µM; in assay [10], 6.25 µM.

Turning to `Cc1ccc(-c2nnc(-c3ccc4ccccc4c3)o2)cc1`, the TGI was more than 100 µM in assay [6]; more than 100 µM in assay [5]; more than 93.5 µM in assay [7]; more than 100 µM in assay [8]; more than 100 µM in assay [9]; more than 100 µM in [10].
